# The supplement of paper PMC10307832
# How the values were obtained:
# Assay in all cases: relative viability (nuclei count vs DMSO), 5 days (fraction); higher = more cells survive
# GSK126 + Linsitinib = compound: CC[C@H](C)N1C=C(C2=C(C=C(C=C21)C3=CN=C(C=C3)N4CCNCC4)C(=O)NCC5=C(C=C(NC5=O)C)C)C [GSK126] + C[C@]1(O)C[C@@H](c2nc(-c3ccc4ccc(-c5ccccc5)nc4c3)c3c(N)nccn32)C1 [Linsitinib] (partner 1 µM)
# Summary of the method: (§1)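 Five library-drug doses in √10 steps were combined with a fixed anchor-drug dose, or a single drug was given alone, by pin tool to lung cancer cell lines in 1536-well plates the day after seeding. Nuclei were stained and counted after 5 days. Relative viability is the nuclei count in treated wells over that in vehicle wells, taken as the median of duplicate plates.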
# GSK126 + Pictilisib = compound: CC[C@H](C)N1C=C(C2=C(C=C(C=C21)C3=CN=C(C=C3)N4CCNCC4)C(=O)NCC5=C(C=C(NC5=O)C)C)C [GSK126] + CS(=O)(=O)N1CCN(Cc2cc3nc(-c4cccc5[nH]ncc45)nc(N4CCOCC4)c3s2)CC1 [Pictilisib] (partner 1 µM)
# Summary of the method: as §1
# MLN4924 + Palbociclib = compound: NS(=O)(=O)OC[C@@H]1C[C@@H](n2ccc3c(N[C@H]4CCc5ccccc54)ncnc32)C[C@@H]1O [MLN4924] + CC(=O)c1c(C)c2cnc(Nc3ccc(N4CCNCC4)cn3)nc2n(C2CCCC2)c1=O [Palbociclib] (partner 0.5 µM)
# Summary of the method: as §1
# MLN4924 + Pemetrexed = compound: NS(=O)(=O)OC[C@@H]1C[C@@H](n2ccc3c(N[C@H]4CCc5ccccc54)ncnc32)C[C@@H]1O [MLN4924] + Nc1nc2[nH]cc(CCc3ccc(C(=O)N[C@@H](CCC(=O)O)C(=O)O)cc3)c2c(=O)[nH]1 [Pemetrexed] (partner 0.2 µM)
# Summary of the method: as §1
Cell Line,relative viability (GSK126 + Linsitinib; first compound 0.08 µM),relative viability (GSK126 + Linsitinib; first compound 0.253 µM),relative viability (GSK126 + Linsitinib; first compound 0.8 µM),relative viability (GSK126 + Linsitinib; first compound 2.53 µM),relative viability (GSK126 + Linsitinib; first compound 8 µM),relative viability (GSK126 + Pictilisib; first compound 0.08 µM),relative viability (GSK126 + Pictilisib; first compound 0.253 µM),relative viability (GSK126 + Pictilisib; first compound 0.8 µM),relative viability (GSK126 + Pictilisib; first compound 2.53 µM),relative viability (GSK126 + Pictilisib; first compound 8 µM),relative viability (MLN4924 + Palbociclib; first compound 0.04 µM),relative viability (MLN4924 + Palbociclib; first compound 0.1265 µM),relative viability (MLN4924 + Palbociclib; first compound 0.4 µM),relative viability (MLN4924 + Palbociclib; first compound 1.265 µM),relative viability (MLN4924 + Palbociclib; first compound 4 µM),relative viability (MLN4924 + Pemetrexed; first compound 0.04 µM),relative viability (MLN4924 + Pemetrexed; first compound 0.1265 µM),relative viability (MLN4924 + Pemetrexed; first compound 0.4 µM),relative viability (MLN4924 + Pemetrexed; first compound 1.265 µM),relative viability (MLN4924 + Pemetrexed; first compound 4 µM)
BEN,1.19,0.953,0.813,0.893,0.653,0.706,0.569,0.582,0.541,0.438,0.402,0.411,0.374,0.285,0.222,0.602,0.884,0.455,0.28,0.227
NCI-H441,0.684,0.583,0.599,0.578,0.651,0.495,0.638,0.432,0.539,0.428,0.236,0.224,0.165,0.104,0.101,0.248,0.222,0.234,0.139,0.187
HCC-44,0.681,0.692,0.659,0.7,0.715,0.643,0.534,0.894,0.61,0.591,1,0.756,0.793,0.636,0.45,0.653,0.62,0.484,0.455,0.443
NCI-H3122,1.03,0.998,0.86,1.05,1.04,0.61,0.597,0.595,0.684,0.703,0.162,0.0893,0.129,0.0849,0.0684,0.202,0.219,0.17,0.155,0.138
NCI-H1355,0.947,0.872,0.793,0.637,0.841,0.476,0.531,0.447,0.499,0.447,0.418,0.409,0.445,0.234,0.195,1.01,1.07,0.879,0.547,0.256
NCI-H1734,0.871,0.896,0.814,0.846,0.946,0.49,0.403,0.408,0.43,0.45,0.372,0.341,0.272,0.14,0.146,0.497,0.514,0.252,0.128,0.125
LXF-289,1.02,1,0.995,0.915,1,0.835,0.791,0.732,0.769,0.8,0.568,0.458,0.472,0.194,0.112,0.814,0.77,0.567,0.177,0.116
RERF-LC-KJ,0.908,0.909,0.852,0.884,0.901,0.551,0.554,0.589,0.529,0.55,0.875,0.363,0.184,0.152,0.218,0.523,0.426,0.18,0.208,0.224
NCI-H2087,0.979,0.942,0.931,0.885,0.967,1.08,0.745,0.815,0.894,0.844,0.184,0.184,0.19,0.0803,0.093,0.639,0.71,0.562,0.118,0.0987
NCI-H1793,1.04,0.777,0.748,0.982,0.82,0.224,0.37,0.36,0.502,0.343,0.338,0.295,0.442,0.265,0.214,0.892,0.698,0.914,0.433,0.303
HCC-827,1.03,0.965,0.948,0.875,0.964,1.19,1.25,1.01,0.953,1.12,0.35,0.325,0.317,0.173,0.148,0.278,0.271,0.266,0.176,0.17
NCI-H1395,1.26,1.01,0.991,0.998,1.08,0.653,0.653,0.798,0.699,0.726,0.726,0.679,0.528,0.357,0.354,0.847,0.773,0.678,0.349,0.305
NCI-H23,0.63,0.528,0.442,0.592,0.725,0.535,0.568,0.418,0.466,0.512,0.478,0.441,0.26,0.175,0.2,0.74,0.842,0.421,0.256,0.213
HARA,1.01,0.898,0.872,0.976,0.836,0.394,0.421,0.48,0.411,0.37,0.324,0.233,0.169,0.0893,0.147,0.215,0.164,0.14,0.0838,0.183
